Test results as given in ChEMBL document CHEMBL1146961, “Analogues of N-hydroxycinnamoylphenalkylamides as inhibitors of human melanocyte-tyrosinase” (Bioorg Med Chem Lett, 2006).

What was measured:
Rattus norvegicus = assay: Toxicity in rat at 2 g/kg, po; type: organism-based; details: in vivo, 2000 mg/kg
[1] = system: Radical scavenging activity; assay: DPPH radical scavenging activity at 100 uM; type: functional

Q: `O=C(/C=C/c1ccc(O)c(O)c1)NCCc1ccc(O)cc1` was tested. Which Activity (Rattus norvegicus) did it give?
A: Its Activity is “Not Active”.

Q: And the Activity [1]?
A: The Activity was 40%.

Q: How did the Activity [1] turn out when `O=C(/C=C/c1ccc(O)c(O)c1)NCCc1ccc(O)c(O)c1` was run?
A: Its Activity is 60%.

Q: Which Activity (Rattus norvegicus) does the source give for `O=C(CCc1ccc(O)c(O)c1)NCCc1ccc(O)cc1` here?
A: Its Activity is “Not Active”.

Q: For `O=C(CCc1ccc(O)cc1)NCCc1ccc(O)cc1`, which Activity (Rattus norvegicus) is on record?
A: The Activity was “Not Active”.

Q: How did the Activity [1] turn out when `COc1cc(CNC(=O)/C=C/c2ccc(O)c(O)c2)ccc1O` was run?
A: Its Activity is 60%.

Q: Which Activity [1] does the source give for `COc1cc(/C=C/C(=O)NCCc2ccc(O)c(O)c2)ccc1O` here?
A: Its Activity is 60%.
